According to patent US5045566A, “Novel imidate insecticides” (ICI Americas Inc., priority 1989, dated 1991):

Assays:
Assay type in all cases: in vivo
[1] = tested on: Housefly [Musca domestica]; experiment: Housefly contact mortality in dishes (HF), 48 hours; conditions: μg of test compound per 25 female flies
Method in brief: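 LC50, as μg compound per 25 female flies, comes from dosage-mortality curves with doses from 100 μg downward. Residues were made by evaporating acetone plus 0.01% peanut oil in dishes, onto which 1-2-day-old females were caged; deaths were counted after 48 hours.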

[2] = tested on: Black Bean Aphid [Aphis fabae (Scop.)]; experiment: Black bean aphid spray test on nasturtium (BBA), 48 hours; conditions: percent of test compound in sprayed solution
Method in brief: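 LC50, given as percent test compound in the sprayed liquid, was calculated from dosage-mortality curves using concentrations from 0.05% downward. Sprays in 50:50 acetone-water went to runoff on ~5 cm nasturtiums carrying 25-50 aphids of mixed ages, one day after infestation. Deaths were counted 48 h later under greenhouse conditions.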

[3] = tested on: Tobacco Budworm [Heliothis virescens (Fabricius)] eggs; experiment: Tobacco budworm eggs (TBW-E); conditions: percent in solution; 2-day old eggs
Method in brief: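 Paper-towel patches of 2-day-old eggs dipped in acetone solutions of compound (0.1% downward), held on larval rearing medium at 78° F. Mortality scored once all control eggs had hatched and larvae were feeding; LC50 from dosage-mortality curves, expressed as percent compound in solution.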

[4] = tested on: Cabbage Looper [Trichoplusia ni (Hubner)]; experiment: Cabbage looper leaf dip (CL), 3-5 days; conditions: percent in solution, second-instar larvae
Method in brief: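 Squash cotyledons dipped 2-3 s in compound in 50-50 acetone-water, dried, then infested with 5 second-instar larvae and held at high humidity. Mortality scored after 3-5 days at concentrations from 0.1% downward. LC50 from dosage-mortality curves, expressed as percent compound in solution.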

[5] = tested on: Maize weevil [Sitophilus zeamais (Motschulsky)]; experiment: Maize weevil on dipped corn seeds (MW), 48 hours; conditions: percent in solution, adult weevils
Method: The compounds in Tables 1 and 2 above were tested for insecticidal activity using the following testing procedures. LC50 values, based on the results of these tests and calculated according to dosage-mortality curves, are expressed in Table 3.
Maize weevil [Sitophilus zeamais (Motschulsky)]:
Test compounds were diluted in a 50:50 acetone:water solution. Four corn seeds [Zea mays (L.)] which had been immersed in test solutions for 2-3 seconds and allowed to dry were placed in containers together with 10 adult weevils. The containers were covered and kept at a temperature of about 25° C. Mortality was recorded after 48 hours. Test concentrations ranged from 0.01% down to that at which 50% mortality occurred. The LC50 values are expressed below in Table 3 under the heading "MW" in terms of percent of the test compound in solution.

## CC(C)C(=Nc1ccc(Cl)c(C(F)(F)F)c1)OCc1ccc(F)c(Oc2ccccc2)c1 [Compound 388]
[1]
  LC50 HF: < 100 µg
[2]
  LC50 BBA: 0.0006%
[3]
  LC50 TBW E (eggs): > 0.1%
[4]
  LC50 CL: 0.0012%
[5]
  LC50 MW: > 0.01%

## CC(C)C(=Nc1cccc(I)c1)OCc1cccc(Oc2ccc(Cl)cc2)c1 [Compound 389]
[1]
  LC50 HF: < 100 µg
[2]
  LC50 BBA: 0.003%
[3]
  LC50 TBW E (eggs): > 0.1%
[4]
  LC50 CL: 0.00069%
[5]
  LC50 MW: > 0.01%

## CC(C)C(=Nc1cccc(Cl)c1)OCc1ccc(F)c(Oc2ccc(Cl)cc2)c1 [Compound 390]
[1]
  LC50 HF: < 100 µg
[2]
  LC50 BBA: 0.0006%
[3]
  LC50 TBW E (eggs): 0.045%
[4]
  LC50 CL: 0.0021%
[5]
  LC50 MW: > 0.01%

## CC(C)C(=Nc1ccc(C#N)cc1)OCc1ccc(F)c(Oc2ccc(Cl)cc2)c1 [Compound 392]
[1]
  LC50 HF: < 100 µg
[2]
  LC50 BBA: 0.001%
[3]
  LC50 TBW E (eggs): 0.039%
[4]
  LC50 CL: 0.00034%
[5]
  LC50 MW: > 0.01%

## CC(C)C(=Nc1ccc(C#N)cc1)OCc1cccc(Oc2ccc(Cl)cc2)c1 [Compound 393]
[1]
  LC50 HF: < 100 µg
[2]
  LC50 BBA: > 0.05%
[3]
  LC50 TBW E (eggs): > 0.1%
[4]
  LC50 CL: 0.00037%
[5]
  LC50 MW: > 0.01%

## CC(C)C(=Nc1ccc(C#N)cc1)OCc1ccc(F)c(Oc2ccc(F)cc2)c1 [Compound 394]
[1]
  LC50 HF: < 100 µg
[2]
  LC50 BBA: 0.002%
[3]
  LC50 TBW E (eggs): 0.05%
[4]
  LC50 CL: 0.00025%
[5]
  LC50 MW: > 0.01%

## CC(C)C(=Nc1ccc(F)c(Cl)c1F)OCc1ccc(F)c(Oc2ccc(Cl)cc2)c1 [Compound 395]
[1]
  LC50 HF: 8.6 µg
[2]
  LC50 BBA: 0.0001%
[3]
  LC50 TBW E (eggs): 0.018%
[4]
  LC50 CL: < 0.1%
[5]
  LC50 MW: 0.004%

## Cc1cc(N=C(OCc2ccc(F)c(Oc3ccc(F)cc3)c2)C(C)C)ccc1F [Compound 396]
[1]
  LC50 HF: < 100 µg
[2]
  LC50 BBA: 0.0002%
[3]
  LC50 TBW E (eggs): < 0.1%
[4]
  LC50 CL: 0.0017%
[5]
  LC50 MW: > 0.01%

## Cc1cc(N=C(OCc2cccc(Oc3ccc(Cl)cc3)c2)C(C)C)ccc1F [Compound 397]
[1]
  LC50 HF: < 100 µg
[2]
  LC50 BBA: 0.002%
[3]
  LC50 TBW E (eggs): < 0.1%
[4]
  LC50 CL: 0.0019%
[5]
  LC50 MW: > 0.01%

## CC(C)C(=Nc1ccc(F)c(Br)c1)OCc1cccc(Oc2ccc(Cl)cc2)c1 [Compound 398]
[1]
  LC50 HF: < 100 µg
[2]
  LC50 BBA: 0.002%
[3]
  LC50 TBW E (eggs): < 0.1%
[4]
  LC50 CL: < 0.1%
[5]
  LC50 MW: > 0.01%

## Cc1cc(N=C(OCc2ccc(F)c(Oc3ccc(Cl)cc3)c2)C(C)C)ccc1F [Compound 399]
[1]
  LC50 HF: < 100 µg
[2]
  LC50 BBA: 0.0003%
[3]
  LC50 TBW E (eggs): 0.025%
[4]
  LC50 CL: 0.0012%
[5]
  LC50 MW: > 0.01%

## Cc1cc(N=C(OCc2ccc(F)c(Oc3ccccc3)c2)C(C)C)ccc1F [Compound 400]
[1]
  LC50 HF: < 100 µg
[2]
  LC50 BBA: 0.0003%
[3]
  LC50 TBW E (eggs): 0.025%
[4]
  LC50 CL: 0.0007%
[5]
  LC50 MW: > 0.01%
